Laboratory results from paper PMC3281193, “Quinol derivatives as potential trypanocidal agents” (Bioorganic & Medicinal Chemistry, 2012).
Where two headings read alike, the source gives them in different places.

What was measured:
wild type T. brucei = assay: 96-well manual assay on wild type T. brucei; format: cell-based; conditions: Trypanosoma brucei, read-out: T. brucei EC50 (SD)
Procedure: (§1) In order to determine if analogues 35, 38, 44 and 46 are substrates for the P2 transporter they were assayed against a line of T. brucei lacking the gene which codes for the P2 transporter (Table 2).[33] If the analogues are transported they would be expected to show greater potency against wild type T. brucei than against the P2 knock out line. Compounds 8 and 19,[25] which contain the triazole and indolyl quinol pharmacophore respectively, but lack a P2 motif, served as negative controls.
(§2) The 96-well HTS assays against blood stream form T. brucei[38] and MRC5 cells were carried out as reported previously.[39] The manual assays performed on the AT1 double knock out T. brucei and wild type T. brucei were conducted as described by Jones et al.[39]

T. brucei AT1 KO = assay: 96-well manual assay on AT1 double knock out T. brucei (P2 transporter knock out); format: cell-based, Trypanosoma brucei; conditions: for EC50: Trypanosoma brucei, read-out: T. brucei AT1 KO EC50 (SD); for Cell line selectivity: EC50 (AT1 KO)/EC50 (WT): manual assay
Procedure: as §1, with “If the analogues are transported they would be expected to show greater potency against wild type T. brucei than against the P2 knock out line.” left out
as §2

[1] = system: blood stream form T. brucei; assay: 96-well HTS assay against blood stream form T. brucei; format: cell-based, Trypanosoma brucei; conditions: for EC50: Trypanosoma brucei
Procedure: as §2

MRC5 cells [2] = assay: cells; format: cell-based, human; conditions: Homo sapiens, MRC5, read-out: EC50 MRC5 (SD, n)
Procedure: as §2

MRC5 cells [3] = system: MRC5 cells; set-up: method as in PMID 21212280; conditions: Table 1; data taken from Konig et al.; cited from earlier work
[4] = system: blood stream form T. brucei; set-up: method as in PMID 21212280; conditions: cited from earlier work; for EC50: Table 1, data taken from Konig et al.
in vitro = format: cell-based, human; conditions: human
Procedure: as §2

[5] = Table 2, 96-well manual assay, wild type, weighted mean of three independent experiments
[6] = Table 1, arithmetic mean of independent determinations, read-out: EC50 T. brucei (SD, n)
[7] = Table 2, 96-well HTS assay, blood stream form T. b. brucei, read-out: T. brucei EC50 (SD, n)

SMILES: N=C(N)c1ccc(/N=N/Nc2ccc(C(=N)N)cc2)cc1 [Berenil, reference compound]
- EC50 (wild type T. brucei; [5]): 31 nM
- EC50 (T. brucei AT1 KO): 330 nM
- Cell line selectivity: EC50 (AT1 KO)/EC50 (WT) (T. brucei AT1 KO): 11

SMILES: C#CC1(O)C=CC(=O)C=C1 [Compound 1, 4-Ethynyl-4-hydroxycyclohexa-2,5-dienone]
- EC50 [1, 6]: 2000 nM
- EC50 (MRC5 cells [2]): 2100 nM

SMILES: O=C1C=CC(O)(C#Cc2ccc(CC(=O)Nc3ccccc3)cc2)C=C1 [Compound 3, 2-(4-((1-Hydroxy-4-oxocyclohexa-2,5-dien-1-yl)ethynyl)phenyl)-N-phenylacetamide]
- EC50 [1, 6]: 2200 nM
- EC50 (MRC5 cells [2]): 670 nM

SMILES: O=C1C=CC(O)(c2nc3ccccc3s2)C(Cl)=C1 (centres unmarked) [Compound 6]
- activity against T. brucei in words [1]: low nanomolar range
- EC50 [1, 6]: 46 nM
- EC50 (MRC5 cells [2]): 55 nM

SMILES: Oc1ccc(-c2nc3ccccc3s2)cc1 [Compound 7]
- EC50 (MRC5 cells [3]): > 50 µM
- EC50 [4]: > 50000 nM
- activity against T. brucei in words [4]: inactive

SMILES: COc1ccc(-n2cc(C3(O)C=CC(=O)C=C3)nn2)cc1 [Compound 8]
- EC50 (wild type T. brucei): 95 nM
- EC50 (T. brucei AT1 KO): 74 nM
- Cell line selectivity: EC50 (AT1 KO)/EC50 (WT) (T. brucei AT1 KO): 0.78

SMILES: COc1ccc(Cn2cc(C3(O)C=CC(=O)C=C3)nn2)cc1 [Compound 9]
- EC50 [1, 6]: 160 nM
- EC50 (MRC5 cells [2]): 450 nM

SMILES: O=C1C=CC(O)(c2cn(-c3ccc4ncsc4c3)nn2)C=C1 [Compound 10]
- activity against T. brucei in words [1]: low nanomolar range
- EC50 [1, 6]: 27 nM
- EC50 (MRC5 cells [2]): 69 nM

SMILES: CC(=O)OC[C@H]1O[C@@H](n2cc(C3(O)C=CC(=O)C=C3)nn2)[C@H](OC(C)=O)[C@@H](OC(C)=O)[C@H]1OC(C)=O [Compound 11]
- EC50 [1, 6]: 10000 nM
- EC50 (MRC5 cells [2]): > 50000 nM

SMILES: O=C1C=CC(O)(c2cn(CCC(=O)Nc3ccccc3)nn2)C=C1 [Compound 12, 3-(4-(1-Hydroxy-4-oxocyclohexa-2,5-dien-1-yl)-1H-1,2,3-triazol-1-yl)-N-phenylpropanamide]
- EC50 [1, 6]: 2700 nM
- EC50 (MRC5 cells [2]): 18000 nM

SMILES: O=C1C=CC(O)(c2cc3ccc(F)cc3n2S(=O)(=O)c2ccccc2)C=C1 [Compound 13]
- EC50 [4]: 100 nM

SMILES: O=C1C=CC(O)(c2cc3cnccc3n2S(=O)(=O)c2ccccc2)C=C1 [Compound 15]
- activity against T. brucei in words [1]: low nanomolar range
- EC50 [1, 6]: 22 nM
- EC50 (MRC5 cells [2]): 41 nM

SMILES: Cc1ccc(S(=O)(=O)n2c(C3(O)C=CC(=O)C=C3)cc3ccncc32)cc1 [Compound 16]
- activity against T. brucei in words [1]: low nanomolar range
- EC50 [1, 6]: 26 nM
- EC50 (MRC5 cells [2]): 44 nM

SMILES: CCOC(=O)Nc1ccc(S(=O)(=O)n2c(C3(O)C=CC(=O)C=C3)cc3ccccc32)cc1 [Compound 17]
- EC50 [1, 6]: 50 nM
- EC50 (MRC5 cells [2]): 86 nM

SMILES: CC(=O)NCCc1ccc(S(=O)(=O)n2c(C3(O)C=CC(=O)C=C3)cc3ccccc32)cc1 [Compound 18]
- activity against T. brucei in words [1]: low nanomolar range
- EC50 [1, 6]: 12 nM
- EC50 (MRC5 cells [2]): 36 nM

SMILES: COC(=O)CCc1ccc(S(=O)(=O)n2c(C3(O)C=CC(=O)C=C3)cc3ccccc32)cc1 [Compound 19, Methyl 3-(4-((2-(1-hydroxy-4-oxocyclohexa-2,5-dien-1-yl)-1H-indol-1-yl)sulfonyl)phenyl) propanoate]
- EC50 (wild type T. brucei; [5]): 60 nM
- EC50 (T. brucei AT1 KO): 80 nM
- Cell line selectivity: EC50 (AT1 KO)/EC50 (WT) (T. brucei AT1 KO): 1.3
- EC50 [1, 6]: 160 nM
- EC50 [1, 7]: 160 nM
- EC50 (in vitro): 0.28 µM
- EC50 (MRC5 cells [2]): 280 nM

SMILES: O=C1C=CC(O)(c2cc3ccccc3n2S(=O)(=O)c2ccc(CCCO)cc2)C=C1 [Compound 20]
- EC50 [1, 6]: 24 nM
- EC50 (MRC5 cells [2]): 51 nM

SMILES: O=C1C=CC(O)(c2cc3ccccc3n2S(=O)(=O)c2ccc(CCC(=O)N3CCOCC3)cc2)C=C1 [Compound 21]
- EC50 [1, 6]: 36 nM
- EC50 (MRC5 cells [2]): 67 nM

SMILES: CN1CCN(C(=O)CCc2ccc(S(=O)(=O)n3c(C4(O)C=CC(=O)C=C4)cc4ccccc43)cc2)CC1 [Compound 22]
- EC50 [1, 6]: 18 nM
- EC50 (MRC5 cells [2]): 52 nM

SMILES: O=C1C=CC(O)(c2cc3ccccc3n2S(=O)(=O)c2ccc(CCCN3CCOCC3)cc2)C=C1 [Compound 23]
- EC50 [1, 6]: 26 nM
- EC50 (MRC5 cells [2]): 79 nM

SMILES: CN1CCN(CCCc2ccc(S(=O)(=O)n3c(C4(O)C=CC(=O)C=C4)cc4ccccc43)cc2)CC1 [Compound 24]
- EC50 [1, 6]: 16 nM
- EC50 (MRC5 cells [2]): 50 nM

SMILES: CS(=O)(=O)c1ccc(S(=O)(=O)n2c(C3(O)C=CC(=O)C=C3)cc3ccccc32)cc1 [Compound 25]
- EC50 [1, 6]: 24 nM
- EC50 (MRC5 cells [2]): 39 nM

SMILES: N=C(N)c1ccc(-n2cc(C3(O)C=CC(=O)C=C3)nn2)cc1 [Compound 35, 4-(4-(1-Hydroxy-4-oxocyclohexa-2,5-dienyl)-1H-1,2,3-triazol-1-yl)benzimidamide]
- EC50 (wild type T. brucei; [5]): 5000 nM
- EC50 (T. brucei AT1 KO): 6000 nM
- Cell line selectivity: EC50 (AT1 KO)/EC50 (WT) (T. brucei AT1 KO): 1.2
- EC50 [1, 7]: 11000 nM
- EC50 (in vitro): > 50 µM

SMILES: Nc1nc(N)nc(-n2cc(C3(O)C=CC(=O)C=C3)nn2)n1 [Compound 38, 4-(1-(4,6-Diamino-1,3,5-triazin-2-yl)-1H-1,2,3-triazol-4-yl)-4-hydroxycyclohexa-2,5-dienone]
- EC50 (wild type T. brucei; [5]): 3800 nM
- EC50 (T. brucei AT1 KO): 3800 nM
- Cell line selectivity: EC50 (AT1 KO)/EC50 (WT) (T. brucei AT1 KO): 1.0
- EC50 [1, 7]: 6200 nM
- EC50 (in vitro): > 50 µM

SMILES: O=C1C=CC(O)(c2cc3ccccc3n2S(=O)(=O)c2ccc(CCC(=O)O)cc2)C=C1 [Compound 42, 3-(4-((2-(1-Hydroxy-4-oxocyclohexa-2,5-dien-1-yl)-1H-indol-1-yl)sulfonyl)phenyl)propanoic acid]
- EC50 [1, 7]: 740 nM
- EC50 (in vitro): 3.3 µM

SMILES: Nc1nc(N)nc(NCCCOC(=O)CCc2ccc(S(=O)(=O)n3c(C4(O)C=CC(=O)C=C4)cc4ccccc43)cc2)n1 [Compound 44, 3-((4,6-Diamino-1,3,5-triazin-2-yl)amino)propyl 3-(4-((2-(1-hydroxy-4-oxocyclohexa-2,5-dien-1-yl)-1H-indol-1-yl)sulfonyl)phenyl)propanoate]
- EC50 (wild type T. brucei; [5]): 250 nM
- EC50 (T. brucei AT1 KO): 260 nM
- Cell line selectivity: EC50 (AT1 KO)/EC50 (WT) (T. brucei AT1 KO): 1.0
- EC50 [1, 7]: 350 nM
- EC50 (in vitro): 0.95 µM

SMILES: Nc1nc(N)nc(NCCCNC(=O)CCc2ccc(S(=O)(=O)n3c(C4(O)C=CC(=O)C=C4)cc4ccccc43)cc2)n1 [Compound 46, N-(3-((4,6-Diamino-1,3,5-triazin-2-yl)amino)propyl)-3-(4-((2-(1-hydroxy-4-oxocyclohexa-2,5-dien-1-yl)-1H-indol-1-yl)sulfonyl)phenyl)propanamide]
- EC50 (wild type T. brucei; [5]): 1700 nM
- EC50 (T. brucei AT1 KO): 1800 nM
- Cell line selectivity: EC50 (AT1 KO)/EC50 (WT) (T. brucei AT1 KO): 1.1
- EC50 [1, 7]: 3200 nM
- EC50 (in vitro): 18 µM

SMILES: Nc1nc(N)nc(Nc2ccc([As]3SCC(CO)S3)cc2)n1 (centres unmarked) [melarsoprol, reference compound]
- EC50 ([1]; read-out: EC50 against T. brucei): 33 nM

SMILES: N=C(N)c1ccc(OCCCCCOc2ccc(C(=N)N)cc2)cc1 [pentamidine, reference compound]
- EC50 ([1]; reference drugs assayed under identical conditions, read-out: EC50 against T. brucei): 8 nM
